Reference: publication PMC8341910, “Structural and biophysical insights into the mode of covalent binding of rationally designed potent BMX inhibitors” (RSC Chemical Biology, 2020)

Tests used:
His6-hsBMX = target: T1, His6-hsBMX (Homo sapiens, UniProt P51813); test: Surface plasmon resonance (SPR); assay type: binding; conditions: 1:1 Langmuir fit, 25 °C
T1 construct: Crystallization, data collection, and structure determination of BMX catalytic domain in; made in house; host or cells: Sf-9 insect cells
Description: response upon compound injection (t=0s), or upon washing (t=220s), on immobilized His6-
hsBMX surfaces. Compound concentrations injected on already saturated surfaces were not
included in the 1:1 Langmuir fitting model. X-axis: time (s); y-axis: response (arbitrary units).
Inset plots [x-axis: compound concentration (M); y-axis: response (arbitrary units)] show the
steady-state affinity (KDss) fit for the interactions wherein equilibrium was reached.
Surface Plasmon Resonance:
The kinetic and affinity parameters of protein-compound interaction were evaluated by SPR.
Experiments were carried out in a Biacore 4000 instrument (Biacore AB, GE Healthcare Life
Sciences, Uppsala, Sweden) at 25 °C. His6-BMX protein was diluted to 10 µg/mL in sodium
acetate pH 5.5, in the presence of 5 µM staurosporine and immobilized onto CM5 (Series S)
sensor chips, using the standard amine coupling procedure. Prior to immobilization, the
carboxymethylated surface of the chip was activated with 400 mM 1-ethyl-3-(3-
dimethylaminopropyl)-carbodiimide and 100 mM N-hydroxysuccinimide for 10 min. HBS-N
(10 mM HEPES pH7.4, 150mM NaCl) was used as the background buffer. Protein was coupled
to the surface after 2 to 10 min injection times, at a flow rate of 10 µL/min, in order to reach
1500 to 3500 response units (RU). The remaining activated carboxymethylated groups were
blocked with a 7 min injection of 1 M ethanolamine pH 8.5. Compounds were pre-diluted in
DMSO to 50x the desired highest tested concentration and diluted afterwards in running buffer
(20 mM HEPES pH 7.4, 150 mM NaCl, 1 mM DTT, 0.1 mM EGTA, 0.05 % (v/v) TWEEN-
20, 5 mM MgCl2) in order to reach 2% of DMSO concentration. A DMSO solvent correction
(1% - 3%) was performed to account for variations in bulk signal and to achieve high-quality
data. Each compound was injected over immobilized His6-BMX for 220 s (30 µL min-1;
association phase) followed by 600 to 2000 s of buffer flow (dissociation phase) at a maximum
five times in 2-fold dilution series. All sensorgrams were processed by first subtracting the
binding response recorded from the control surface (reference spot), followed by subtracting
the buffer blank injection from the reaction spot. All datasets were fit to a simple 1:1 Langmuir
interaction model with the provided Biacore 4000 Evaluation software, to determine kinetic rate constants (kon, koff) or steady-state affinity (KDss).

hBMX = target: T2, hBMX (Homo sapiens, UniProt P51813); test: Mass spectrometry of drug-conjugated hBMX; conditions: 2.5 mM compound, room temperature, 30 min, PBS pH 7.4; MS/MS after digestion
T2 construct: Crystallization, data collection, and structure determination of BMX catalytic domain in; made in house; host or cells: Sf-9 insect cells
Description: Mass spectrometry (MS) studies confirmed the covalent binding of JS24 at cysteine 496 of BMX. The truncated hBMX was analyzed by native MS and the protein mass found was 30899 Da (Fig. 2a). The protein was then treated with 2.5 mM of JS24 at room temperature for 30 min in PBS pH 7.4 and directly analyzed by denaturing MS. The protein was fully denatured and cleaned on a reverse phase column, discarding any non-specific binding, to retain only any covalently linked compound. The mass found upon incubation with JS24 is 31 424 Da, which is 525 Da larger than the apo-form of hBMX (Fig. 2b).
Fig. 2 Mass spectrometric analysis of BMX and JS24 conjugated to BMX. (a) Native MS analysis of hBMX. The measured molecular weight is indicated. […] The measured molecular weight is indicated. […]
The BMX enzyme system (Catalog. V4512) and the ADP-GloTM kinase assay were purchased from Promega Corporation (USA). […] Then, 10 µL of kinase detection reagent was added into the wells and incubated for 30 min to produce a luminescence signal. The signal was measured using an Infinite M200 Microplate Reader (Tecan Group Ltd, Switzerland), with an integration time of 0.250s. The observed rate constants for inhibition (kobs), at different inhibitor concentrations, were determined from the slope of a semi-logarithmic plot of inhibition versus time, and re-plotted against inhibitor concentration (nM). […]

RS4(11) = test: Multi cell line growth assay (CellTiter-Glo, 72 h); assay type: cell-based, human; conditions: Homo sapiens, RS4-11, Lung (so in the source), ND = no growth inhibition observed
DAUDI = test: Multi cell line growth assay (CellTiter-Glo, 72 h); assay type: cell-based, human; conditions: Homo sapiens, Daudi, Lymphoid, ND = no growth inhibition observed
[1] = target: T3, wild-type BMX in PC3 cells (Homo sapiens, UniProt P51813); test: BMX degradation assay in PC3 cells (Western blot); assay type: cell-based; conditions: 10 μM; 24 h and 72 h; band intensity normalized to α-Tubulin
T3 construct: endogenous in cells; host or cells: PC3 prostate cancer cells (wild-type, untransfected)
Description: The cell proliferation depends on BMX kinase activity that was used to monitor the cellular activity of the compounds (IC50). […].  Fig. 5 (a) Intracellular target engagement in HEK293 cells transiently transfected with BMX expressing NanoLuc®-BMX fusion vector with Promega's NanoBRET™ TE Intracellular Kinase Assay. […] Band intensity was measured using ImageJ and normalized with α-Tubulin band intensity. […] Data are mean ± standard deviation obtained from at least three independent measurements (n = 3). See ESI ^† for additional data and analysis. […] | page 12: […]
degradation assay. Protein band intensity normalized with α-Tubulin band intensity and quantified using ImageJ. Data was obtained from at least three independent measurements […]
concentration against PC3 cells, plated on 6-well plates, a day after attachment. DMSO was used as a control vehicle. At 24 h and 72 h of incubation, cells were washed in 1X PBS and lysed in 100 µL RIPA Buffer (in house) supplemented with EDTA-free Protease Inhibitor Cocktail (Merk) and DNase I (Merk). The lysis procedure was performed by re-suspending cells continuously, followed by a incubation of 30 min on ice. BMX antibody (Abcam) and tubulin antibody (Cell signaling Technology) were used in the Western blot. Band intensity […]

[2] = target: JAK2(JH1domain-catalytic) (Homo sapiens, UniProt O60674); test: KINOMEscan binding; conditions: read-out: % Ctrl JAK2(JH1domain-catalytic)
Description: (§1) Therefore, we included the whole TEC, EGFR and JAK family in our screening, and the Src family and Lkb1, which also have a cysteine within the same sequence alignment. We also included kinases involved in upstream (Src, FAK, PI3K, mTOR, PDK1) and downstream (Akt, PAK1, TAM) regulation of BMX signaling pathway and non-receptor tyrosine protein kinase Abl.
(§2) Kinome selectivity was performed with DiscoverX KINOMEscan™ technology.

PIK3CB = PIK3CB (Homo sapiens, UniProt P42338); test: KINOMEscan binding; conditions: read-out: % Ctrl PIK3CB
Description: as §1, §2

PIK3CD = PIK3CD (Homo sapiens, UniProt O00329); test: KINOMEscan binding; conditions: read-out: % Ctrl PIK3CD
Sequence of PIK3CD (O00329 whole entry): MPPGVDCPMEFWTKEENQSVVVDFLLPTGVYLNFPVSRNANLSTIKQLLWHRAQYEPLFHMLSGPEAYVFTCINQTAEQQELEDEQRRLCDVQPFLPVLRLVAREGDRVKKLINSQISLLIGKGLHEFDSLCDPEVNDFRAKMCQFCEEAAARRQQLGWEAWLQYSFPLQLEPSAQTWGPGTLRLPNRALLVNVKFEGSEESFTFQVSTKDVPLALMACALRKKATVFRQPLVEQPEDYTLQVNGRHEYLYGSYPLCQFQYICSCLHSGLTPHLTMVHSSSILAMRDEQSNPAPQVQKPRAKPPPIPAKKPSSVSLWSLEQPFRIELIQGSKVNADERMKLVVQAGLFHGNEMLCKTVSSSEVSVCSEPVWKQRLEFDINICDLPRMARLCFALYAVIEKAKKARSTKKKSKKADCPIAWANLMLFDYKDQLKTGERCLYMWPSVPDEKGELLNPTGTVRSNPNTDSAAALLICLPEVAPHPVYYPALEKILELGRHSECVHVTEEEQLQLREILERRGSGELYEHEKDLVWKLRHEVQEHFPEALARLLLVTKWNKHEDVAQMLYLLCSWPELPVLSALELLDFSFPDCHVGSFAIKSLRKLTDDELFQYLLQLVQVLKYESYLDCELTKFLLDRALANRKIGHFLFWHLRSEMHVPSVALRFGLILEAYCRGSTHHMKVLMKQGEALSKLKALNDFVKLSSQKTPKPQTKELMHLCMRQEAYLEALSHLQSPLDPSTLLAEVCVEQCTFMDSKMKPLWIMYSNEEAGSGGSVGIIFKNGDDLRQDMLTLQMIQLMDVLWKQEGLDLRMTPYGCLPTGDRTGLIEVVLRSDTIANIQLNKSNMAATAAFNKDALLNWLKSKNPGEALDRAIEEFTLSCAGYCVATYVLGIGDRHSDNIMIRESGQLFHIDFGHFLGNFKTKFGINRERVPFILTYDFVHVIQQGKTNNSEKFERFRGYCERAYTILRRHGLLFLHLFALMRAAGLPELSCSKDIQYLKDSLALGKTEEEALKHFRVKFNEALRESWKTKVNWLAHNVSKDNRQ
Description: as §1, §2

T1 sequence (P51813 417-675 limits assumed): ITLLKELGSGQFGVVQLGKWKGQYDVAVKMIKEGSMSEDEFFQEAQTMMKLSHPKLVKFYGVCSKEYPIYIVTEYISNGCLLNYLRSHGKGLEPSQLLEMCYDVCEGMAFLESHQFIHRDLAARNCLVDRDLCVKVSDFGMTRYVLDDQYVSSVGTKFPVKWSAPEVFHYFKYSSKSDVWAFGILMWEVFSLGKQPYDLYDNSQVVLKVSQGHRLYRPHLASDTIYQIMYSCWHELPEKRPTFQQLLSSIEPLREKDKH
Sequence of JAK2(JH1domain-catalytic) (O60674 841-1132 limits assumed): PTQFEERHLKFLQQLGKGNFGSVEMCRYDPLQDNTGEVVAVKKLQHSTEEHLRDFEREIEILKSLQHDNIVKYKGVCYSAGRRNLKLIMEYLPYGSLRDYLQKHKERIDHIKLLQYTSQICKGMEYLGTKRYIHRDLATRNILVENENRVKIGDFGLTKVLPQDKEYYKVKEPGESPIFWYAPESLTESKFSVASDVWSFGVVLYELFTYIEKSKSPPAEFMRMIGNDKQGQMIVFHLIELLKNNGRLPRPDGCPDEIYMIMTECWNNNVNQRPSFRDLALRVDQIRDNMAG
T2 sequence (P51813 417-675 limits assumed): as the sequence (P51813 417-675 limits assumed) above
T3 sequence (P51813 whole entry): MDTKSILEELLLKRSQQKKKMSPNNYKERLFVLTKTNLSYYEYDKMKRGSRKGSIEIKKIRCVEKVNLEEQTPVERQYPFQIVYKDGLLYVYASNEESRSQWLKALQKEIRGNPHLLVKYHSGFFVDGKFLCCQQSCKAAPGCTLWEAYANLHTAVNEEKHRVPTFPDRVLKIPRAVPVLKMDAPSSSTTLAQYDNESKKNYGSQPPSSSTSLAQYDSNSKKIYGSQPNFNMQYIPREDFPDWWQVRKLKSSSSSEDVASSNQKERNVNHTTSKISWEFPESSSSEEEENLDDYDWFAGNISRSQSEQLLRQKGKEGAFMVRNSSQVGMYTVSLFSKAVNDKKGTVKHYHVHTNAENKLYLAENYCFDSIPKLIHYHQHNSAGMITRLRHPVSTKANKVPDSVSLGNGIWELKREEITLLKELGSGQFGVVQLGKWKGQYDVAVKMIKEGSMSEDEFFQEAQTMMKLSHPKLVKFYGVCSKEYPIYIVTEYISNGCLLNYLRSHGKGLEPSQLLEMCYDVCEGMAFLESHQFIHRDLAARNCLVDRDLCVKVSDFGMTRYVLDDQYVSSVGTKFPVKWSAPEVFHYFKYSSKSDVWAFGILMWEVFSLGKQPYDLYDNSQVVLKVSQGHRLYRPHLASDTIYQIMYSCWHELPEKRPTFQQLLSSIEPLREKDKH
Sequence of PIK3CB (P42338 whole entry): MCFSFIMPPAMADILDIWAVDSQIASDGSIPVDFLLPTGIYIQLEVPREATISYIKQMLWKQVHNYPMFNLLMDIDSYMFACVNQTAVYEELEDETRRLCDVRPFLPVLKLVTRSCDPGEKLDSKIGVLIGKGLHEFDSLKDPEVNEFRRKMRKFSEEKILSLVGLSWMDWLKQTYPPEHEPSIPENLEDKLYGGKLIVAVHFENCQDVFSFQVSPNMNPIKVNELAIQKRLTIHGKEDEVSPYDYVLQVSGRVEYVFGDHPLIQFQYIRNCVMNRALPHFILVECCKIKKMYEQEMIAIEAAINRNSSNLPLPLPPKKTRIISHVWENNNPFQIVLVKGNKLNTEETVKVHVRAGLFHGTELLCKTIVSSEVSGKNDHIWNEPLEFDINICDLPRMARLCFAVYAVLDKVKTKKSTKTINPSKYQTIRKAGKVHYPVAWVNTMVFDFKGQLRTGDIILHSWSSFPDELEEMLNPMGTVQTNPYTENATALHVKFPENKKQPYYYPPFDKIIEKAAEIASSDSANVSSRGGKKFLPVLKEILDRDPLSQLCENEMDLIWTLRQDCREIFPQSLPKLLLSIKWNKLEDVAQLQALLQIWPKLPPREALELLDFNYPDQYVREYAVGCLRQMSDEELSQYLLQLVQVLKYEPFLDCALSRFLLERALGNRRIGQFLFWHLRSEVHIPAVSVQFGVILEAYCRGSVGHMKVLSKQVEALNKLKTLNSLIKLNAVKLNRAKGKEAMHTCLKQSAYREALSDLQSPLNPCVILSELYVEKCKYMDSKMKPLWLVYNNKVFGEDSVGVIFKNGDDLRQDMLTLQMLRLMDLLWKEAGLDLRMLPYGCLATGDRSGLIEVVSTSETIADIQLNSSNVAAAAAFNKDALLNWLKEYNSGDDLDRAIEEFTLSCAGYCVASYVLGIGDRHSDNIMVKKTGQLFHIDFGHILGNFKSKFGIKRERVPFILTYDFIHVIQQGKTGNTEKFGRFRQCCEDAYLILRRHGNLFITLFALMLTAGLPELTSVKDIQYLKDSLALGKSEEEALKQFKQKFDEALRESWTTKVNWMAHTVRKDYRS

koff (His6-hsBMX) [s⁻¹]	kon (His6-hsBMX) [M⁻¹ s⁻¹]	GI50 (RS4(11)) [µM]	GI50 (DAUDI) [µM]	SMILES	site of covalent modification of hBMX (hBMX)	degradation of BMX protein [1]	remaining binding at 1 µM [2] [%]	remaining binding at 1 µM (PIK3CB) [%]	remaining binding at 1 µM (PIK3CD) [%]
< 0.0001	140000	2.09	1.27 ± 0.05	C=CC(=O)Nc1cc(-n2c(=O)ccc3cnc4cc(-c5ccc(NS(C)(=O)=O)cc5)ccc4c32)ccc1C [JS24]	covalent modification at cysteine residue 496				
				C=CC(=O)Nc1cc(C)cc(-n2c(=O)ccc3cnc4cc(-c5ccc(NS(C)(=O)=O)cc5)ccc4c32)c1 [JS25]		induce degradation of wild-type BMX in PC3 cells	81	89	100
